Laboratory results reported in patent US12077503B2, “Substituted cyclic amides and their use as herbicides” (FMC CORPORATION, priority 2015, dated 2024).

How the values were obtained:
Format in all cases: in vivo
[1] = tested on: giant foxtail (Setaria faberii); experiment: Test A preemergence; conditions: Preemergence
Procedure, shortened: (§1)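 Visual injury, scored on a 0–100 scale relative to untreated controls, was recorded about 10 d after application. Treatments were a preemergence soil spray over planted seeds or a postemergence spray on plants at the one- to two-leaf stage, 2 to 10 cm tall, all in loam soil–sand blend in the greenhouse.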

[2] = tested on: ryegrass, Italian (Italian ryegrass, Lolium multiflorum); experiment: Test A preemergence; conditions: Preemergence
Procedure, shortened: as §1

[3] = tested on: pigweed (Amaranthus retroflexus); experiment: Test A preemergence; conditions: Preemergence
Kochia (Kochia scoparia) [4] = experiment: Test A preemergence; conditions: Preemergence
Procedure, shortened: as §1

[5] = tested on: barnyardgrass (Echinochloa crus-galli); experiment: Test A preemergence; conditions: Preemergence
Procedure, shortened: as §1

[6] = tested on: ragweed (common ragweed, Ambrosia elatior); experiment: Test A preemergence; conditions: Preemergence
Procedure, shortened: as §1

[7] = tested on: giant foxtail (Setaria faberii); experiment: Test A postemergence
Procedure, shortened: as §1

[8] = tested on: blackgrass (Alopecurus myosuroides); experiment: Test A postemergence
Procedure, shortened: as §1

[9] = tested on: ryegrass, Italian (Italian ryegrass, Lolium multiflorum); experiment: Test A postemergence
Procedure, shortened: as §1

[10] = tested on: pigweed (Amaranthus retroflexus); experiment: Test A postemergence
Procedure, shortened: as §1

Kochia (Kochia scoparia) [11] = experiment: Test A postemergence
Procedure, shortened: as §1

[12] = tested on: barnyardgrass (Echinochloa crus-galli); experiment: Test A postemergence
Procedure, shortened: as §1

[13] = tested on: ragweed (common ragweed, Ambrosia elatior); experiment: Test A postemergence
Procedure, shortened: as §1

[14] = tested on: Galium (catchweed bedstraw, Galium aparine); experiment: Test A postemergence
Procedure, shortened: as §1

corn (Zea mays) = experiment: Test A postemergence
Procedure, shortened: as §1

[15] = tested on: wheat (Triticum aestivum); experiment: Test A postemergence
Procedure, shortened: as §1

[16] = tested on: ducksalad (Heteranthera limosa); experiment: Test B flooded paddy test; conditions: Flood, 250 g ai/ha; 0 to 100 scale where 0 is no effect and 100 is complete control; 13 to 15 d
Procedure, shortened: (§2)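 Response scored visually against untreated controls, 0 = no effect and 100 = complete control, 13–15 d after treatment in the greenhouse. Compounds added to paddy water held 3 cm above soil surface. Treatment given at 2-leaf stage.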

[17] = tested on: sedge, umbrella (small-flower umbrella sedge, Cyperus difformis); experiment: Test B flooded paddy test; conditions: Flood, 250 g ai/ha; 0 to 100 scale where 0 is no effect and 100 is complete control; 13 to 15 d
Procedure, shortened: as §2

rice (Oryra sativa) = experiment: Test B flooded paddy test; conditions: Flood, 250 g ai/ha; 0 to 100 scale where 0 is no effect and 100 is complete control; 13 to 15 d
Procedure, shortened: as §2

[18] = tested on: barnyardgrass (Echinochloa crus-galli); experiment: Test B flooded paddy test; conditions: Flood, 250 g ai/ha; 0 to 100 scale where 0 is no effect and 100 is complete control; 13 to 15 d
Procedure, shortened: as §2

[19] = 125 g ai/ha, visual injury after approximately 10 d, 0 to 100 scale where 0 is no effect and 100 is complete control
[20] = 500 g ai/ha, visual injury approx. 10 d
[21] = 125 g ai/ha, postemergence, visual rating after approx. 10 d, 0 to 100 scale (0 no effect, 100 complete control)
[22] = Postemergence, 500 g ai/ha, 0 to 100 scale where 0 is no effect and 100 is complete control

O=C1NCC(c2cccc(C(F)(F)F)c2F)C1C(=O)Nc1cccc(F)c1F (stereo not drawn) [Compound 591]
Plant response rating, Foxtail, Giant [1, 19]: 90
Foxtail, Giant plant response rating (0 to 100 scale, 0 is no effect, 100 is complete control) [1, 20]: 90
Plant response rating, Ryegrass, Italian [2, 19]: 20
Ryegrass, Italian plant response rating (0 to 100 scale, 0 is no effect, 100 is complete control) [2, 20]: 60
Plant response rating, Pigweed [3, 19]: 0
Pigweed plant response rating (0 to 100 scale, 0 is no effect, 100 is complete control) [3, 20]: 40
Plant response rating, Kochia (Kochia (Kochia scoparia) [4]; [19]): 30
Kochia plant response rating (0 to 100 scale, 0 is no effect, 100 is complete control) (Kochia (Kochia scoparia) [4]; [20]): 60
Plant response rating, Barnyardgrass [5, 19]: 90
Barnyardgrass plant response rating (0 to 100 scale, 0 is no effect, 100 is complete control) [5, 20]: 90
Plant response rating, Ragweed [6, 19]: 0
Ragweed plant response rating (0 to 100 scale, 0 is no effect, 100 is complete control) [6, 20]: 60
Plant response rating, Foxtail, Giant [7, 21]: 90
Plant response rating, Foxtail, Giant [7, 22]: 90
Plant response rating, Blackgrass [8, 21]: 50
Plant response rating, Blackgrass [8, 22]: 60
Plant response rating, Ryegrass, Italian [9, 21]: 0
Plant response rating, Ryegrass, Italian [9, 22]: 70
Plant response rating, Pigweed [10, 21]: 20
Plant response rating, Pigweed [10, 22]: 70
Plant response rating, Kochia (Kochia (Kochia scoparia) [11]; [21]): 20
Plant response rating, Kochia (Kochia (Kochia scoparia) [11]; [22]): 60
Plant response rating, Barnyardgrass [12, 21]: 90
Plant response rating, Barnyardgrass [12, 22]: 90
Plant response rating, Ragweed [13, 21]: 0
Plant response rating, Ragweed [13, 22]: 30
Plant response rating, Galium [14, 21]: 40
Plant response rating, Galium [14, 22]: 50
Plant response rating, Corn (corn (Zea mays); [21]): 70
Plant response rating, Corn (corn (Zea mays); [22]): 80
Plant response rating, Wheat [15, 21]: 50
Plant response rating, Wheat [15, 22]: 60
Plant response rating, Ducksalad [16]: 100
Plant response rating, Sedge, Umbrella [17]: 0
Plant response rating, Rice (rice (Oryra sativa)): 35
Plant response rating, Barnyardgrass [18]: 65
